The supplement of paper PMC10307832

How the values were obtained:
Test in all cases: relative viability (nuclei count vs DMSO), 5 days (fraction); higher = more cells survive
Carboplatin + Pemetrexed = compound: C1CC(C1)(C(=O)O)C(=O)O.[NH2-].[NH2-].[Pt+2] [Carboplatin] + Nc1nc2[nH]cc(CCc3ccc(C(=O)N[C@@H](CCC(=O)O)C(=O)O)cc3)c2c(=O)[nH]1 [Pemetrexed] (partner 0.2 µM)
Outline: (§1)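 A single step with final 0.05% Triton X-100, 1% formaldehyde and 1 ug/ml Hoechst fixed the cells and stained nuclei 5 days after treatment. Lung cancer cell lines in 1536-well plates had been treated by pin tool the day after seeding with one drug alone or a fixed anchor-drug dose plus five library-drug doses (not always all listed) in √10 steps, and nuclei were counted on 4× images. Relative viability is the ratio of nuclei in treated wells to nuclei in vehicle wells, taken as the median of duplicate plates.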

GSK126 + Dasatinib = compound: CC[C@H](C)N1C=C(C2=C(C=C(C=C21)C3=CN=C(C=C3)N4CCNCC4)C(=O)NCC5=C(C=C(NC5=O)C)C)C [GSK126] + Cc1nc(Nc2ncc(C(=O)Nc3c(C)cccc3Cl)s2)cc(N2CCN(CCO)CC2)n1 [Dasatinib] (partner 0.075 µM)
Outline: as §1

Carboplatin + Vorinostat = compound: C1CC(C1)(C(=O)O)C(=O)O.[NH2-].[NH2-].[Pt+2] [Carboplatin] + O=C(CCCCCCC(=O)Nc1ccccc1)NO [Vorinostat] (partner 1 µM)
Outline: as §1

MLN4924 + OSI-027 = compound: NS(=O)(=O)OC[C@@H]1C[C@@H](n2ccc3c(N[C@H]4CCc5ccccc54)ncnc32)C[C@@H]1O [MLN4924] + COc1cccc2cc(-c3nc([C@H]4CC[C@H](C(=O)O)CC4)n4ncnc(N)c34)[nH]c12 [OSI-027] (partner 0.5 µM)
Outline: as §1

How did the relative viability (Carboplatin + Pemetrexed; first compound 0.08 µM) turn out when UMC-11 was run?
The relative viability was 0.853.

And the relative viability (Carboplatin + Pemetrexed; first compound 0.253 µM)?
Its relative viability is 0.738.

And the relative viability (Carboplatin + Pemetrexed; first compound 0.8 µM)?
The relative viability was 0.802.

What about the relative viability (Carboplatin + Pemetrexed; first compound 2.53 µM) of the same cell line?
Its relative viability is 0.689.

And the relative viability (Carboplatin + Pemetrexed; first compound 8 µM)?
Its relative viability is 0.62.

And the relative viability (GSK126 + Dasatinib; first compound 0.08 µM)?
The relative viability was 0.512.

What about the relative viability (GSK126 + Dasatinib; first compound 0.253 µM) of the same cell line?
The relative viability was 0.475.

What about the relative viability (GSK126 + Dasatinib; first compound 0.8 µM) of the same cell line?
Its relative viability is 0.443.

What about the relative viability (GSK126 + Dasatinib; first compound 2.53 µM) of the same cell line?
The relative viability was 0.417.

What about the relative viability (GSK126 + Dasatinib; first compound 8 µM) of the same cell line?
The relative viability was 0.437.

And the relative viability (Carboplatin + Vorinostat; first compound 0.08 µM)?
The relative viability was 0.425.

What about the relative viability (Carboplatin + Vorinostat; first compound 0.253 µM) of the same cell line?
Its relative viability is 0.364.

What about the relative viability (Carboplatin + Vorinostat; first compound 0.8 µM) of the same cell line?
Its relative viability is 0.36.

What about the relative viability (Carboplatin + Vorinostat; first compound 2.53 µM) of the same cell line?
Its relative viability is 0.37.

And the relative viability (Carboplatin + Vorinostat; first compound 8 µM)?
The relative viability was 0.283.

What about the relative viability (MLN4924 + OSI-027; first compound 0.04 µM) of the same cell line?
Its relative viability is 0.429.

What about the relative viability (MLN4924 + OSI-027; first compound 0.1265 µM) of the same cell line?
Its relative viability is 0.315.

What about the relative viability (MLN4924 + OSI-027; first compound 0.4 µM) of the same cell line?
The relative viability was 0.271.

What about the relative viability (MLN4924 + OSI-027; first compound 1.265 µM) of the same cell line?
The relative viability was 0.168.

And the relative viability (MLN4924 + OSI-027; first compound 4 µM)?
The relative viability was 0.179.
